Source: patent EP0565593B1, “REDUCING PESTICIDAL INTERACTIONS IN CROPS” (priority 1990, dated 1992)
Read-outs that look alike come from different tables or passages of the source.

How the values were obtained:
Giant foxtail (GIFT) = assay: Multi-crop greenhouse test, soil-applied (Examples 65, 66; Tables 64, 65); type: in vivo; design: inhibition: dose or concentration left out as unconfirmed; settings: Setaria faberi; for inhibition at 18 g/ha: Herb. No. 1 0.018 Kg/Ha alone; for inhibition at 70 g/ha: Herb. No. 1 0.07 Kg/Ha alone; for inhibition at 280 g/ha: Herb. No. 1 0.28 Kg/Ha alone
Protocol: (§1) Tests according to this invention in various crops indicate widespread application of the invention. In Examples 62-66 below are described tests with a variety of herbicides contacted with COUNTER® 15G in the presence and absence of MON-7400 (Antidote No. 12); MON-13900 (No. 1); MON-4660 (No. 16) and flurazole (No. 16). Those tests were conducted according to Procedures IV or V described above and illustrated further in other foregoing examples. Plants used in all tests were, for crops (as abbreviated in parentheses); cotton (COTT); soybean (SOBE); CORN, grain sorghum (GRSO); wheat (WHEA) and RICE, and the weeds giant foxtail (GIFT) and velvetleaf (VELE). The data in the tables below represent averages of two replications.
(§2) In this test the crops and weeds were planted 1.3 cm deep in 13.7 cm X 27.7 cm pans containing Dupo silt loam soil. The test safeners were applied in acetone solution and COUNTER 15G as dry granules to soil cover layers and incorporated by shaking in a bag. Treated cover layers were placed on seeded pans which were transferred to greenhouse benches and subirrigated. Herbicide was applied POE six (6) days after PPI initiation and observations of plant injury made ten (10) days later; results are shown in Table 61. The herbicide used in this example was BEACON (No. 8).
(§3) In another test in the several crops and weeds used in this test series, the herbicidal component was MON-12000 (No. 1); the other components were the same. the procedure used in this test was the same as that described in Example 62, modified to use a light overhead irrigation (about 0.32 cm/day) during days 4-7 of the test. Table 64 […]

soybean (SOBE) = assay: as above; type: in vivo; design: inhibition: dose or concentration left out as unconfirmed; settings: Glycine max; for inhibition at 18 g/ha: Herb. No. 1 0.018 Kg/Ha alone; for inhibition at 70 g/ha: Herb. No. 1 0.07 Kg/Ha alone; for inhibition at 280 g/ha: Herb. No. 1 0.28 Kg/Ha alone
Protocol: as §1, §2, §3

RICE = assay: as above; type: in vivo; design: inhibition: dose or concentration left out as unconfirmed; settings: Oryza sativa; for inhibition at 18 g/ha: Herb. No. 1 0.018 Kg/Ha alone; for inhibition at 70 g/ha: Herb. No. 1 0.07 Kg/Ha alone; for inhibition at 280 g/ha: Herb. No. 1 0.28 Kg/Ha alone
Protocol: as §1, §2, §3

Velvetleaf (VELE) [1] = assay: as above; type: in vivo, Abutilon theophrasti; design: inhibition: dose or concentration left out as unconfirmed; settings: Abutilon theophrasti; for inhibition at 18 g/ha: Herb. No. 1 0.018 Kg/Ha alone; for inhibition at 70 g/ha: Herb. No. 1 0.07 Kg/Ha alone; for inhibition at 280 g/ha: Herb. No. 1 0.28 Kg/Ha alone
Protocol: as §1, §2, §3

Velvetleaf (VELE) [2] = type: in vivo, Abutilon theophrasti
Velvetleaf (VELE) [3] = assay: Greenhouse test Procedure VII (same examples); type: in vivo, Abutilon theophrasti; settings: Antidote + Biocide No. 1 in furrow
Description: This procedure describes interaction among herbicide, biocide and antidote when the biocide and the antidote is applied to a soil furrow containing crop seed before emergence of the crop and the herbicide is applied after emergence of the crop and weeds. The soil and planting depth was described in Procedure IV. The containers for comparison, the biocide and antidote applications to soil furrows were described in Procedure VI. In this procedure, the seed beds of the first, second, third and fourth containers are covered by soil layers not treated with herbicide. The containers were then placed on a bench in a greenhouse and subirrigated as required for the duration of the test. The herbicide, dispersed or dissolved in water containing 0.25% v/v nonionic surfactant (X-77) was applied by a track sprayer (187 L/ha) to the emerged plants of the second, third and fourth containers about five days after planting. All treatments were run in duplicate. Plant response was observed according to Procedure IV. Variations in this procedure will be noted in the examples.
In this example, tests were conducted according to Procedure VII for the POE application of the herbicides following in-furrow application of COUNTER® 15G insecticide (BIOCIDE No. 1) and the antidote on the pre-planted test seeds. In this test, the herbicides were Nos. 1 (MON-12000), 10 (ALLY®) and #4 (HARMONY®) and the Antidote Nos. 1, 7, 12 and 33.
These in-furrow treatments comprised a 50-50 mix of blended granules of COUNTER with and without 5G granular antidotes at 7.4 + 7.4 mg/cm or 1.1 + 0.37 mg active ingredient (a.i.)/cm. The in-furrow initiation of the test was followed five (5) days later with POE application of the herbicides; observations were made eight (8) days later. Table 38 […]

[4] = Table 64, Herb. No. 1 0.018 Kg/Ha + Biocide No. 1 8.96 Kg/Ha
[5] = Table 64, Herb. No. 1 0.07 Kg/Ha + Biocide No. 1 8.96 Kg/Ha
[6] = Table 64, Herb. No. 1 0.28 Kg/Ha + Biocide No. 1 8.96 Kg/Ha
[7] = Table 65, Herb. No. 1 0.018 Kg/Ha + Biocide No. 1 8.96 Kg/Ha
[8] = Table 65, Herb. No. 1 0.07 Kg/Ha + Biocide No. 1 8.96 Kg/Ha
[9] = Table 65, Herb. No. 1 0.28 Kg/Ha + Biocide No. 1 8.96 Kg/Ha

## COC(=O)c1c(Cl)nn(C)c1S(=O)(=O)NC(=O)Nc1nc(OC)cc(OC)n1 [Herbicide No. 1, N-[(4,6-dimethoxypyrimidin-2-yl)aminocarbonyl]-3-chloro-4-methoxycarbonyl-5-sulfonamide, reference compound]
Giant foxtail (GIFT); [4]
  inhibition: 70%
Giant foxtail (GIFT); Table 64
  inhibition at 18 g/ha: 0%
  inhibition at 70 g/ha: 20%
  inhibition at 280 g/ha: 40%
Giant foxtail (GIFT); [5]
  inhibition: 70%
Giant foxtail (GIFT); [6]
  inhibition: 85%
Giant foxtail (GIFT); [7]
  inhibition: 30%
Giant foxtail (GIFT); Table 65
  inhibition at 18 g/ha: 20%
  inhibition at 70 g/ha: 60%
  inhibition at 280 g/ha: 70%
Giant foxtail (GIFT); [8]
  inhibition: 65%
Giant foxtail (GIFT); [9]
  inhibition: 90%
Soybean (SOBE); [4]
  inhibition: 5%
Soybean (SOBE); Table 64
  inhibition at 18 g/ha: 15%
  inhibition at 70 g/ha: 45%
  inhibition at 280 g/ha: 70%
Soybean (SOBE); [5]
  inhibition: 70%
Soybean (SOBE); [6]
  inhibition: 75%
Soybean (SOBE); [7]
  inhibition: 0%
Soybean (SOBE); Table 65
  inhibition at 18 g/ha: 0%
  inhibition at 70 g/ha: 0%
  inhibition at 280 g/ha: 20%
Soybean (SOBE); [8]
  inhibition: 0%
Soybean (SOBE); [9]
  inhibition: 15%
RICE; [4]
  inhibition: 0%
RICE; Table 64
  inhibition at 18 g/ha: 0%
  inhibition at 70 g/ha: 0%
  inhibition at 280 g/ha: 40%
RICE; [5]
  inhibition: 10%
RICE; [6]
  inhibition: 25%
RICE; [7]
  inhibition: 0%
RICE; Table 65
  inhibition at 18 g/ha: 0%
  inhibition at 70 g/ha: 40%
  inhibition at 280 g/ha: 60%
RICE; [8]
  inhibition: 25%
RICE; [9]
  inhibition: 90%
Velvetleaf (VELE) [1]; [4]
  inhibition: 75%
Velvetleaf (VELE) [1]; Table 64
  inhibition at 18 g/ha: 70%
  inhibition at 70 g/ha: 90%
  inhibition at 280 g/ha: 100%
Velvetleaf (VELE) [1]; [5]
  inhibition: 85%
Velvetleaf (VELE) [1]; [6]
  inhibition: 100%
Velvetleaf (VELE) [1]; [7]
  inhibition: 10%
Velvetleaf (VELE) [1]; Table 65
  inhibition at 18 g/ha: 15%
  inhibition at 70 g/ha: 80%
  inhibition at 280 g/ha: 90%
Velvetleaf (VELE) [1]; [8]
  inhibition: 80%
Velvetleaf (VELE) [1]; [9]
  inhibition: 90%

## N#CCOc1ccc(Cl)c2cccnc12 [compound 33]
Velvetleaf (VELE) [2]; Antidote 4.48 + Biocide No. 1 8.96 Kg/Ha PPI, Herb. No. 8 0.07, 5 DAP, before herbicide application
  % Inhibition 5 DAP VELE: 50%
Velvetleaf (VELE) [2]; Antidote 4.48 + Biocide No. 1 8.96 Kg/Ha PPI, Herb. No. 8 0.07 POE, 13 DAP
  % Inhibition 13 DAP VELE: 95%
Velvetleaf (VELE) [2]; Antidote 4.48 + Biocide No. 1 8.96 Kg/Ha PPI, Herbicide No. 7 0.28 POE, 13 days after planting
  % Inhibition VELE: 70%
Velvetleaf (VELE) [2]; Herb. […], 5 DAP, before herbicide application
  % Inhibition 5 DAP VELE: 30%
Velvetleaf (VELE) [2]; Table 14: Herbicide No. 7 (ACCENT) 0.84 Kg/Ha POE + Biocide No. 2 8.96 Kg/Ha PPI + antidote 4.48 Kg/Ha PPI, 13 days after planting, 8 days after herbicide
  % Inhibition VELE: 75%
Velvetleaf (VELE) [2]; […], 13 days after planting, 8 days after herbicide
  % Inhibition VELE: 70%
Velvetleaf (VELE) [2]; […], observed 10 days after herbicide application
  % Inhibition VELE: 85%
Velvetleaf (VELE) [2]; in vivo
  % Inhibition 5 DAP VELE: 60%
  % Inhibition 13 DAP VELE: 90%
Velvetleaf (VELE) [3]; Herbicide No. 1 0.14 Kg/Ha POE, 8 days after POE
  % Inhibition VELE: 90%
Velvetleaf (VELE) [3]; Herbicide No. 4 0.17 Kg/Ha POE, 8 days after POE
  % Inhibition VELE: 90%
Velvetleaf (VELE) [3]; Herbicide No. 5 0.07 Kg/Ha POE, 8 days after POE
  % Inhibition VELE: 90%
Velvetleaf (VELE) [3]; Herbicide No. 6 0.01 Kg/Ha POE
  % Inhibition VELE: 65%
Velvetleaf (VELE) [3]; Herbicide No. 7 0.56 Kg/Ha POE, 8 days after POE
  % Inhibition VELE: 65%
Velvetleaf (VELE) [3]; Herbicide No. 9 0.009 Kg/Ha POE
  % Inhibition VELE: 85%
Velvetleaf (VELE) [3]; Herbicide No. 10 0.002 Kg/Ha POE, 8 days after POE
  % Inhibition VELE: 90%
Velvetleaf (VELE) [3]; Herbicide No. 15 0.0044 Kg/Ha POE, 8 days after POE
  % Inhibition VELE: 80%
Velvetleaf (VELE) [3]; Herbicide No. 16 0.01 Kg/Ha POE
  % Inhibition VELE: 40%
Velvetleaf (VELE) [3]; Herbicide No. 18 0.0044 Kg/Ha POE
  % Inhibition VELE: 65%
Velvetleaf (VELE) [3]; Herbicide No. 19 0.28 Kg/Ha POE
  % Inhibition VELE: 60%
Velvetleaf (VELE) [3]; Herbicide No. 21 0.14 Kg/Ha POE
  % Inhibition VELE: 90%
Velvetleaf (VELE) [3]; Herbicide No. 23 0.0006 Kg/Ha POE
  % Inhibition VELE: 70%
